Assay results as given in the supplement of paper PMC10307832.

Tests used:
Test in all cases: relative viability (nuclei count vs DMSO), 5 days (fraction); higher = more cells survive
[1] = compound: C1COCCN1C2=NC(=NC3=C2OC4=C3C=CC=N4)C5=CC(=CC=C5)NC(=O)C6=CN=C(C=C6)N + CS(=O)(=O)CCNCc1ccc(-c2ccc3ncnc(Nc4ccc(OCc5cccc(F)c5)c(Cl)c4)c3c2)o1 [Lapatinib] (partner 2 µM)
In short: (§1)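 Nuclei were stained with Hoechst during a one-step fixation (final 0.05% Triton X-100, 1% formaldehyde, 1 ug/ml Hoechst) carried out 5 days after dosing, then counted on 4× images. The cells, lung cancer lines in 1536-well plates, had been dosed by pin tool the day after seeding with one drug alone or a fixed anchor-drug dose plus five library-drug doses (not always all listed) in √10 steps. Relative viability is the nuclei count in treated wells divided by that in vehicle wells, and each value is the median of duplicate plates.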

[2] = compound: C1COCCN1C2=NC(=NC3=C2OC4=C3C=CC=N4)C5=CC(=CC=C5)NC(=O)C6=CN=C(C=C6)N + CS(=O)(=O)N1CCN(Cc2cc3nc(-c4cccc5[nH]ncc45)nc(N4CCOCC4)c3s2)CC1 [Pictilisib] (partner 1 µM)
In short: as §1

Entinostat + Pictilisib = compound: Nc1ccccc1NC(=O)c1ccc(CNC(=O)OCc2cccnc2)cc1 [Entinostat] + CS(=O)(=O)N1CCN(Cc2cc3nc(-c4cccc5[nH]ncc45)nc(N4CCOCC4)c3s2)CC1 [Pictilisib] (partner 1 µM)
In short: as §1

Entinostat + Decitabine = compound: Nc1ccccc1NC(=O)c1ccc(CNC(=O)OCc2cccnc2)cc1 [Entinostat] + Nc1ncn([C@H]2C[C@H](O)[C@@H](CO)O2)c(=O)n1 [Decitabine] (partner 2 µM)
In short: as §1

Cell Line | relative viability ([1]; first compound 0.02 µM) | relative viability ([1]; first compound 0.06325 µM) | relative viability ([1]; first compound 0.2 µM) | relative viability ([1]; first compound 0.6325 µM) | relative viability ([1]; first compound 2 µM) | relative viability ([2]; first compound 0.02 µM) | relative viability ([2]; first compound 0.06325 µM) | relative viability ([2]; first compound 0.2 µM) | relative viability ([2]; first compound 0.6325 µM) | relative viability ([2]; first compound 2 µM) | relative viability (Entinostat + Pictilisib; first compound 0.02 µM) | relative viability (Entinostat + Pictilisib; first compound 0.06325 µM) | relative viability (Entinostat + Pictilisib; first compound 0.2 µM) | relative viability (Entinostat + Pictilisib; first compound 0.6325 µM) | relative viability (Entinostat + Pictilisib; first compound 2 µM) | relative viability (Entinostat + Decitabine; first compound 0.02 µM) | relative viability (Entinostat + Decitabine; first compound 0.06325 µM) | relative viability (Entinostat + Decitabine; first compound 0.2 µM) | relative viability (Entinostat + Decitabine; first compound 0.6325 µM) | relative viability (Entinostat + Decitabine; first compound 2 µM)
LK-2 | 1.14 | 1.11 | 0.828 | 0.776 | 0.563 | 0.64 | 0.444 | 0.621 | 0.477 | 0.612 | 0.62 | 0.486 | 0.529 | 0.518 | 0.285 | 0.311 | 0.335 | 0.262 | 0.165 | 0.115
LOU-NH91 | 0.764 | 0.826 | 0.725 | 0.769 | 0.715 | 0.48 | 0.531 | 0.51 | 0.521 | 0.512 | 0.522 | 0.529 | 0.549 | 0.452 | 0.394 | 0.813 | 0.788 | 0.802 | 0.771 | 0.689
LU99A | 1.1 | 1.04 | 0.92 | 0.64 | 0.35 | 0.361 | 0.344 | 0.308 | 0.321 | 0.267 | 0.289 | 0.326 | 0.334 | 0.271 | 0.231 | 0.953 | 0.952 | 0.749 | 0.696 | 0.646
NCI-H441 |  |  |  |  |  | 0.564 | 0.585 | 0.427 | 0.447 | 0.345 | 0.369 | 0.429 | 0.402 | 0.208 | 0.172 | 0.237 | 0.284 | 0.264 | 0.138 | 0.132
NCI-H522 |  |  |  |  |  |  |  |  |  |  |  |  |  |  |  | 0.65 | 0.684 | 0.693 | 0.666 | 0.639
NCI-H1299 | 0.929 | 0.953 | 0.954 | 0.975 | 0.691 | 0.866 | 0.943 | 0.808 | 0.791 | 0.442 | 0.793 | 0.848 | 0.63 | 0.532 | 0.394 |  |  |  |  | 
NCI-H1563 | 0.906 | 0.82 | 0.857 | 0.72 | 0.719 | 0.632 | 0.618 | 0.622 | 0.626 | 0.604 | 0.721 | 0.639 | 0.617 | 0.684 | 0.646 |  |  |  |  | 
NCI-H1648 |  |  |  |  |  |  |  |  |  |  |  |  |  |  |  | 0.476 | 0.524 | 0.416 | 0.326 | 0.285
NCI-H1703 | 1.17 | 1.21 | 0.761 | 0.798 | 0.308 | 0.23 | 0.255 | 0.239 | 0.251 | 0.232 | 0.263 | 0.274 | 0.314 | 0.384 | 0.304 |  |  |  |  | 
NCI-H2228 | 1.1 | 1.2 | 0.89 | 1.06 | 0.604 | 0.486 | 0.346 | 0.38 | 0.234 | 0.256 | 0.289 | 0.285 | 0.292 | 0.253 | 0.161 |  |  |  |  | 
NCI-H2342 |  |  |  |  |  |  |  |  |  |  |  |  |  |  |  | 0.806 | 0.704 | 0.65 | 0.607 | 0.557
SW 900 |  |  |  |  |  |  |  |  |  |  |  |  |  |  |  | 0.429 | 0.419 | 0.391 | 0.302 | 0.286
